This is an account of results in the supplement of paper PMC10307832.

Common to all, as to assay: relative viability (nuclei count vs DMSO), 5 days (fraction); higher = more cells survive
Compound in assay [1]: CC[C@H](Nc1ncnc2[nH]cnc12)c1nc2cccc(F)c2c(=O)n1-c1ccccc1 [Idelalisib] + CC(=O)Nc1cccc(-n2c(=O)n(C3CC3)c(=O)c3c(Nc4ccc(I)cc4F)n(C)c(=O)c(C)c32)c1 [Trametinib] (partner 0.02 µM)
Summed up:
(§1)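 Relative viability equals treated-well nuclei counts divided by vehicle-well nuclei counts. Counts came from 4× images of lung cancer cell lines grown in 1536-well plates for 5 days after pin-tool dosing on the day after seeding. Dosing used one drug alone or a fixed anchor-drug dose plus five library-drug doses (not always all listed) in √10 steps, and values are medians of duplicate plates.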

Compound in assay [2]: CC[C@H](Nc1ncnc2[nH]cnc12)c1nc2cccc(F)c2c(=O)n1-c1ccccc1 [Idelalisib] + NC(=O)Nc1cc(-c2cccc(F)c2)sc1C(=O)N[C@H]1CCCNC1 [AZD7762] (partner 0.2 µM)
An outline of the steps:
as §1

Compound in assay [3]: Nc1nc2[nH]cc(CCc3ccc(C(=O)N[C@@H](CCC(=O)O)C(=O)O)cc3)c2c(=O)[nH]1 [Pemetrexed] + CC1(C)CCC(c2ccc(Cl)cc2)=C(CN2CCN(c3ccc(C(=O)NS(=O)(=O)c4ccc(N[C@H](CCN5CCOCC5)CSc5ccccc5)c(S(=O)(=O)C(F)(F)F)c4)cc3)CC2)C1 [Navitoclax] (partner 0.5 µM)
An outline of the steps: as §1

Compound in assay [4]: CC[C@H](Nc1ncnc2[nH]cnc12)c1nc2cccc(F)c2c(=O)n1-c1ccccc1 [Idelalisib] + CC(=O)c1c(C)c2cnc(Nc3ccc(N4CCNCC4)cn3)nc2n(C2CCCC2)c1=O [Palbociclib] (partner 0.5 µM)
An outline of the steps:
as §1

Turning to A-427, the relative viability in assay [1] (first compound 0.04 µM) was found to be 0.843; in assay [1] (first compound 0.1265 µM) it was 0.812; in assay [1] (first compound 0.4 µM) it was 0.667; in assay [1] (first compound 1.265 µM) it was 0.78; in assay [1] (first compound 4 µM), 0.7; in assay [2] (first compound 0.04 µM), 0.773. Besides, the relative viability was 0.748 in assay [2] (first compound 0.1265 µM); 0.66 in assay [2] (first compound 0.4 µM); 0.442 in assay [2] (first compound 1.265 µM); 0.624 in assay [2] (first compound 4 µM); 0.891 in assay [3] (first compound 0.002 µM); 0.979 in assay [3] (first compound 0.006325 µM). Moreover, the relative viability was determined as 0.978 in assay [3] (first compound 0.02 µM); 1.04 in assay [3] (first compound 0.06325 µM); 0.954 in assay [3] (first compound 0.2 µM); 0.558 in assay [4] (first compound 0.04 µM); 0.542 in assay [4] (first compound 0.1265 µM); 0.491 in assay [4] (first compound 0.4 µM). The figures for the relative viability in assay [4] (first compound 1.265 µM) and in assay [4] (first compound 4 µM) were 0.559 and 0.505, respectively.
With RERF-LC-KJ, the relative viability in assay [1] (first compound 0.04 µM) was 0.84; in assay [1] (first compound 0.1265 µM) it was 0.912; in assay [1] (first compound 0.4 µM), 0.804; in assay [1] (first compound 1.265 µM) it was 0.936; in assay [1] (first compound 4 µM), 0.66; in assay [2] (first compound 0.04 µM), 1.05. Further, the relative viability worked out at 0.947 in assay [2] (first compound 0.1265 µM); 0.924 in assay [2] (first compound 0.4 µM); 1.06 in assay [2] (first compound 1.265 µM); 0.783 in assay [2] (first compound 4 µM); 0.952 in assay [3] (first compound 0.002 µM); 0.722 in assay [3] (first compound 0.006325 µM). Also, the relative viability came out at 1.31 in assay [3] (first compound 0.02 µM); 1.13 in assay [3] (first compound 0.06325 µM); 0.741 in assay [3] (first compound 0.2 µM); 1.12 in assay [4] (first compound 0.04 µM); 1.06 in assay [4] (first compound 0.1265 µM); 1.02 in assay [4] (first compound 0.4 µM). Also, the relative viability turned out to be 0.965 in assay [4] (first compound 1.265 µM) and 0.759 in assay [4] (first compound 4 µM).
On to NCI-H647, for which the relative viability in assay [1] (first compound 0.04 µM) came to 0.431; in assay [1] (first compound 0.1265 µM), 0.485; in assay [1] (first compound 0.4 µM), 0.423; in assay [1] (first compound 1.265 µM), 0.354; in assay [1] (first compound 4 µM) it was 0.239; in assay [2] (first compound 0.04 µM), 0.546. Also, the relative viability was 0.631 in assay [2] (first compound 0.1265 µM); 0.409 in assay [2] (first compound 0.4 µM); 0.198 in assay [2] (first compound 1.265 µM); 0.397 in assay [2] (first compound 4 µM); 1.13 in assay [3] (first compound 0.002 µM); 0.987 in assay [3] (first compound 0.006325 µM). In addition, the relative viability in assay [3] (first compound 0.02 µM) worked out at 1.15; in assay [3] (first compound 0.06325 µM), 0.954; in assay [3] (first compound 0.2 µM), 0.308; in assay [4] (first compound 0.04 µM), 0.393; in assay [4] (first compound 0.1265 µM), 0.319; in assay [4] (first compound 0.4 µM) it was 0.25. Also, the relative viability was determined as 0.242 in assay [4] (first compound 1.265 µM) and 0.219 in assay [4] (first compound 4 µM).
For the cell line NCI-H1734, the relative viability in assay [1] (first compound 0.04 µM) amounted to 0.696; in assay [1] (first compound 0.1265 µM) it was 0.697; in assay [1] (first compound 0.4 µM) it was 0.546; in assay [1] (first compound 1.265 µM), 0.69; in assay [1] (first compound 4 µM) it was 0.556; in assay [2] (first compound 0.04 µM), 0.544. In addition, the relative viability in assay [2] (first compound 0.1265 µM) stood at 0.543; in assay [2] (first compound 0.4 µM), 0.477; in assay [2] (first compound 1.265 µM), 0.209; in assay [2] (first compound 4 µM) it was 0.552; in assay [3] (first compound 0.002 µM), 0.826; in assay [3] (first compound 0.006325 µM), 0.817. In addition, the relative viability in assay [3] (first compound 0.02 µM) came out at 0.933; in assay [3] (first compound 0.06325 µM) it was 0.813; in assay [3] (first compound 0.2 µM), 0.656; in assay [4] (first compound 0.04 µM), 0.38; in assay [4] (first compound 0.1265 µM), 0.397; in assay [4] (first compound 0.4 µM), 0.301. For the same cell line, the relative viability in assay [4] (first compound 1.265 µM) was determined as 0.303; in assay [4] (first compound 4 µM) it was 0.31.
Turning to NCI-H1395, the relative viability in assay [1] (first compound 0.04 µM) is 1.12; in assay [1] (first compound 0.1265 µM), 1; in assay [1] (first compound 0.4 µM) it was 0.965; in assay [1] (first compound 1.265 µM), 1.07; in assay [1] (first compound 4 µM), 0.844; in assay [2] (first compound 0.04 µM) it was 0.415. In addition, the relative viability in assay [2] (first compound 0.1265 µM) stood at 0.45; in assay [2] (first compound 0.4 µM), 0.417; in assay [2] (first compound 1.265 µM), 0.371; in assay [2] (first compound 4 µM) it was 0.422; in assay [3] (first compound 0.002 µM), 1.06; in assay [3] (first compound 0.006325 µM), 1.14. For the same cell line, the relative viability in assay [3] (first compound 0.02 µM) is 1.24; in assay [3] (first compound 0.06325 µM) it was 1.11; in assay [3] (first compound 0.2 µM), 1.11; in assay [4] (first compound 0.04 µM) it was 0.636; in assay [4] (first compound 0.1265 µM), 0.615; in assay [4] (first compound 0.4 µM), 0.595. The relative viability in assay [4] (first compound 1.265 µM) is 0.564; in assay [4] (first compound 4 µM) it was 0.453.
